Values quoted from earlier work as cited in patent publication US20150182483A1 (priority 2014, published 2015).

Assays:
[1] = system: chemical diabetes induced by streptozotocin
[2] = prior art, Kalogeropoulou et al. 2009
[3] = intravenous, subjects
[4] = humans
[5] = pH at which two predominant microspecies have net charge of zero
[6] = D-lysine treatment with streptozotocin diabetes

| SMILES | Blood glucose [1, 6] | Glycated lens proteins [1, 6] | Glycated serum proteins [1, 6] | HbA1 [1, 6] | Urinary d-lysine [1, 6] | Excretion ([1]; animal model) | Nephrotoxicity ([1]; animal model) | non-enzymatic glycation of hemoglobin, lens proteins and serum proteins ([1]; animal model of chemical diabetes induced by streptozotocin) | Response (hypoglycemic effect) [2] | Effect on blood ammonia [3] | Effect on blood glucose [3] | Proposed upper limit (LD 50 not firmly established) [4] | Isoelectric point (pI) [5] |
| --- | --- | --- | --- | --- | --- | --- | --- | --- | --- | --- | --- | --- | --- |
| NCCCC[C@@H](N)C(=O)O [D-lysine] | 25.1 mmol/L | 4.90% | 1.4% | 3.0% | 15.9 mmol/L | excreted in the urine | not nephrotoxic | decrease |  |  |  |  |  |
| NCCCC[C@H](N)C(=O)O [L-lysine] |  |  |  |  |  |  |  |  | Lower blood glucose | without significantly increasing blood ammonia | lowers blood glucose | 300-400 mg×kg^−1xd^−1 | approximately 9.7 |
